Test results reported in PMC11271627, “Molecular dynamics-guided optimization of BGM0504 enhances dual-target agonism for combating diabetes and obesity” (Scientific Reports, 2024).

Assays:
[1] = target: T1, Human GIPR (Homo sapiens, UniProt P48546); assay: cAMP accumulation assay, GIPR; assay type: cell-based
T1 construct: expressed in transfected cells; host or cells: CHO cells
T1 sequence (P48546 22-466): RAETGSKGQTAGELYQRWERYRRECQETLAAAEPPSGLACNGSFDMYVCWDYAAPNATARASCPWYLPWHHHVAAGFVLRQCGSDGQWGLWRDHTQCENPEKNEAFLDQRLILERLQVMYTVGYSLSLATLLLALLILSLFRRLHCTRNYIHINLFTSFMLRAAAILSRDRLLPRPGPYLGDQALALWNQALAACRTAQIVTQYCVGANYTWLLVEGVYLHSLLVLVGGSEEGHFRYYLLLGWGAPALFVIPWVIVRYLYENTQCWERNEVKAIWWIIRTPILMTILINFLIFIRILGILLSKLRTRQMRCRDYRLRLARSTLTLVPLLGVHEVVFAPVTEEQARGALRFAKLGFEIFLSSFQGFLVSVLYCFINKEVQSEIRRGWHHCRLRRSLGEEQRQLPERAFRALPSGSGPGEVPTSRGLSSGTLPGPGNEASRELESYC
Description: (§1) These cells were then resuspended in 5 mL of the assay buffer, and their concentration was determined using a Vi-Cell Counter. […] Samples were subsequently added to the assay plate along with ECHO555. […] A volume of 10 µL of the cell suspension was added to the assay plate, with a density of 1000 cells/well for GLP-1R testing and 2000 cells/well for GIPR testing. The assay plate was then incubated in a 23°C incubator for 30 minutes. A starting concentration of 800 nM was used to prepare the cAMP standard curve, followed by a 4-fold 10-point serial dilution. These serially diluted cAMP standards were added to the assay plate at a volume of 10 µL/well. Subsequently, 10 µL of the cAMP detection solution was added to the assay plate, and the plate was incubated at room temperature for 1 hour, shielded from direct light. […] For data analysis, each data point’s cAMP level (nM) was calculated using the established cAMP standard curve. The percentage activity for each data point was determined using the formula: % Activity = (cAMP level of testing sample - average cAMP level of low control) / ([…] cAMP level of high control - average cAMP level of […] control) × 100%. Additionally, the ‘log(agonist) vs. response – variable slope’ model in GraphPad Prism 5.0 was used to fit the dose-response curve of each sample and calculate the EC50 value.

[2] = target: T2, Human GLP-1R (Homo sapiens, UniProt P43220); assay: cAMP accumulation assay, GLP-1R; assay type: cell-based
T2 construct: expressed in transfected cells; host or cells: HEK293 cells
Description: as §1

[3] = in vivo; parameters: species or system SD rats; details: rat; for AUC(0-inf) / AUC(0-t): SD
Description: In this experiment, a total of 24 rats (12 of each sex) were provided by Beijing Vitong Lever Experimental Animal Technology Co., Ltd. Each animal was identified using a tail mark and had its health status confirmed by Suzhou WuXi AppTec’s veterinary team before use. The animal room was monitored for temperature and humidity, with data recorded daily to ensure that the relative humidity was maintained at 40%–70% and the temperature was between 20–26°C. The lighting adopted a 12-hour alternating light and dark mode. Regular growth feed was provided daily, and animals had ready access to water. […] Post-administration, the condition of the animals was observed and documented before and after each blood collection point. The ensemble of 24 SD rats was divided into four groups, with three specimens of each gender in each group. Animals in group 1 received a single intravenous bolus of 0.2 mg/kg BGM0504, and groups 2, 3, and 4 received a single subcutaneous injection of 0.3, 1.5, and 7.5 mg/kg BGM0504 in 20 mM citrate buffered solution (pH=7.0±0.2), respectively. Blood samples were collected for pharmacokinetic analysis at specific time points (0.5, 1, 2, 4, 8, 12, 24, 48, 72, 96, and 120 hours) before and after dosing. At the same time, blood glucose levels were measured before and at 1, 4, 8, 12, and 24 hours after dosing. The collected blood samples were transferred to labeled commercial sample tubes containing K2-EDTA, centrifuged, and plasma was retrieved; some were used for analysis, and the other part was reserved as a backup. Plasma was transferred to pre-cooled centrifuge tubes, snap-frozen in dry ice, and stored in an ultra-low temperature freezer at -60°C or lower until transported to the Drug Evaluation Department of WuXi AppTec Shanghai Drug Development Co., Ltd. for analysis.

[4] = both sexes, Sprague-Dawley, iv, 0.2 mg/kg
[5] = both sexes, Sprague-Dawley, sc, 0.3 mg/kg
[6] = both sexes, Sprague-Dawley, sc, 1.5 mg/kg
[7] = both sexes, Sprague-Dawley, sc, 7.5 mg/kg

T2 sequence (P43220 24-463): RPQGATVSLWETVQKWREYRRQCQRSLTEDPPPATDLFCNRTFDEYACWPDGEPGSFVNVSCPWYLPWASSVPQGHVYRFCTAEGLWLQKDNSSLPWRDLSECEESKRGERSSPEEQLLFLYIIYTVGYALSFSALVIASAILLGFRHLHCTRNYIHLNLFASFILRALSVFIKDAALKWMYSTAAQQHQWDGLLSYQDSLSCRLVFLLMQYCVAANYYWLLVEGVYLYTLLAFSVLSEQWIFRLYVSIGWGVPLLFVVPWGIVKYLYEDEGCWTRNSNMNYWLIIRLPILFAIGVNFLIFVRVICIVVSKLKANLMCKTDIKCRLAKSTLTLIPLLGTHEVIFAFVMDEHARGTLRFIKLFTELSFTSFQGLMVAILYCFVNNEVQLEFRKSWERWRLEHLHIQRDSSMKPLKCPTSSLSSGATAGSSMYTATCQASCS

CC[C@H](C)[C@H](NC(=O)[C@H](CC(C)C)NC(=O)[C@H](Cc1c[nH]c2ccccc12)NC(=O)[C@H](CCC(N)=O)NC(=O)[C@@H](NC(=O)[C@H](Cc1ccccc1)NC(=O)[C@H](C)NC(=O)[C@H](CCCCN)NC(=O)[C@H](CCC(N)=O)NC(=O)[C@H](C)NC(=O)[C@@H](NC(=O)[C@H](CCCCN)NC(=O)[C@H](CC(=O)O)NC(=O)[C@H](CC(C)C)NC(=O)C(C)(C)NC(=O)[C@@H](NC(=O)[C@H](CO)NC(=O)[C@H](Cc1ccc(O)cc1)NC(=O)[C@H](CC(=O)O)NC(=O)[C@H](CO)NC(=O)[C@@H](NC(=O)[C@H](Cc1ccccc1)NC(=O)[C@@H](NC(=O)CNC(=O)[C@H](CCC(=O)O)NC(=O)C(C)(C)NC(=O)[C@@H](N)Cc1ccc(O)cc1)[C@@H](C)O)[C@@H](C)O)[C@@H](C)CC)[C@@H](C)CC)C(C)C)C(=O)N[C@@H](C)C(=O)NCC(=O)NCC(=O)N1CCC[C@H]1C(=O)N[C@@H](CO)C(=O)N[C@@H](CO)C(=O)NCC(=O)N[C@@H](C)C(=O)N1CCC[C@H]1C(=O)N1CCC[C@H]1C(=O)N1CCC[C@H]1C(=O)N[C@@H](CO)C(=O)N[C@@H](CCCCNC(=O)COCCOCCOCCNC(=O)COCCOCCOCCNC(=O)CC[C@H](NC(=O)CCCCCCCCCCCCCCCCCCC(=O)O)C(=O)O)C(N)=O [BGM0504] gave an EC50 [1] of 0.182 nM, an Emax ([1]; CHO) of 106 ± 7.9% and an EC50 ([2]; HEK293 cells with high expression of GLP-1 receptor, 1000 cells/well, 30 min 23°C, geometric mean ± SEM, n = 3) of 0.031 nM. It also gave an Emax ([2]; HEK293 cells, relative to 10 nM GLP-1(7–37) high control, arithmetic mean ± SEM) of 92.7 ± 7.6%, an AUC(0-inf) ([3]; both sexes, iv, 0.2 mg/kg) of 50 µg·h/mL and an AUC(0-inf) ([3]; both sexes, sc, 0.3 mg/kg) of 33.4 µg·h/mL. For the same molecule, the AUC(0-t) ([3]; both sexes, sc, 0.3 mg/kg) was 33.2 µg·h/mL, the AUC(0-inf) ([3]; both sexes, sc, 1.5 mg/kg) was 154 µg·h/mL and the AUC(0-t) ([3]; both sexes, sc, 1.5 mg/kg) was 153 µg·h/mL. The AUC(0-inf) ([3]; both sexes, sc, 7.5 mg/kg) was 643 µg·h/mL, the AUC(0-t) ([3]; both sexes, sc, 7.5 mg/kg) was 637 µg·h/mL and the C0 [3, 4] was 4650 ± 411 ng/mL. It also gave a Vd [3, 4] of 0.0648 ± 0.0058 L/kg, a clearance [3, 4] of 4.08 ± 0.618 mL/h/kg and a half-life [3, 4] of 816 ± 138 min. The Cmax [3, 5] was 814 ± 111 ng/mL, the Tmax [3, 5] was 24 h and the bioavailability [3, 5] was 44.5%. For the same molecule, the half-life [3, 5] was 870 ± 84 min, the Cmax [3, 6] was 3830 ± 705 ng/mL and the Tmax [3, 6] was 24 h. The bioavailability [3, 6] was 41.1%, the half-life [3, 6] was 804 ± 90 min and the Cmax [3, 7] was 15100 ng/mL. For the same molecule, the Tmax [3, 7] was 20 ± 6.2 h, the bioavailability [3, 7] was 34.3% and the half-life [3, 7] was 882 ± 144 min. The AUC0-24 ([3]; iv, 0.2 mg/kg) was 38800 ng·h/mL, the AUC0-last ([3]; iv, 0.2 mg/kg) was 49800 ng·h/mL and the “AUC0–last (as headed in Table 1)” value ([3]; iv, 0.2 mg/kg) was 38,800 ± 5150 ng h/mL. For the same molecule, the “AUC0–∞ (as headed in Table 1)” value ([3]; iv, 0.2 mg/kg) was 49,800 ± 7470 ng h/mL, the AUC0-24 ([3]; sc, 0.3 mg/kg) was 14100 ng·h/mL and the “AUC0–last (as headed in Table 1)” value ([3]; sc, 0.3 mg/kg) was 14,100 ± 2440 ng h/mL. The “AUC0–∞ (as headed in Table 1)” value ([3]; sc, 0.3 mg/kg) was 33,200 ± 6190 ng h/mL, the AUC0-24 ([3]; sc, 1.5 mg/kg) was 63900 ng·h/mL and the “AUC0–last (as headed in Table 1)” value ([3]; sc, 1.5 mg/kg) was 63,900 ± 11,400 ng h/mL. The “AUC0–∞ (as headed in Table 1)” value ([3]; sc, 1.5 mg/kg) was 153,000 ± 27,700 ng h/mL, the AUC0-24 ([3]; sc, 7.5 mg/kg) was 269000 ng·h/mL and the “AUC0–last (as headed in Table 1)” value ([3]; sc, 7.5 mg/kg) was 269,000 ± 43,000 ng h/mL. The “AUC0–∞ (as headed in Table 1)” value ([3]; sc, 7.5 mg/kg) was 637,000 ± 88,700 ng h/mL.
